# Assay results from patent publication US20170066717A1, “NEW PHENYLAZETIDINECARBOXYLATE OR -CARBOXAMIDE COMPOUNDS” (INVENTIVA, priority 2014, published 2017).
# Where a name gives a salt, the structure may show the parent alone.
# Legend:
# NURR-1/RXRα = biological target: T1, NURR-1/RXRα (Homo sapiens, UniProt P19793); test: Transactivation test, NURR-1-Gal4/RXRα, luciferase reporter in Cos-7 cells; assay type: cell-based; conditions: for Emax: COS-7, induction level relative to reference XCT0135908 at 2×10^−5 M (=100%), read-out: hNurr1_RXRaFL Emax (%); for EC50: Cos-7 cells, NURR-1-Gal4/RXRα, luciferase reporter, read-out: hNurr1_RXRaFL EC50
# T1 construct: expressed in transfected cells; host or cells: Cos-7 cells
# NURR-1/RXRγ = biological target: T2, NURR-1/RXRγ (Homo sapiens, UniProt P48443); test: Transactivation test, NURR-1-Gal4/RXRγ, luciferase reporter in Cos-7 cells; assay type: cell-based; conditions: for Emax: COS-7, induction level relative to reference XCT0135908 at 2×10^−5 M (=100%), read-out: hNurr1_RXRgFL Emax (%); for EC50: Cos-7 cells, NURR-1-Gal4/RXRγ, luciferase reporter, read-out: hNurr1_RXRgFL EC50
# T2 construct: expressed in transfected cells; host or cells: Cos-7 cells
# T2 sequence (P48443 whole entry, the tested form may be a part): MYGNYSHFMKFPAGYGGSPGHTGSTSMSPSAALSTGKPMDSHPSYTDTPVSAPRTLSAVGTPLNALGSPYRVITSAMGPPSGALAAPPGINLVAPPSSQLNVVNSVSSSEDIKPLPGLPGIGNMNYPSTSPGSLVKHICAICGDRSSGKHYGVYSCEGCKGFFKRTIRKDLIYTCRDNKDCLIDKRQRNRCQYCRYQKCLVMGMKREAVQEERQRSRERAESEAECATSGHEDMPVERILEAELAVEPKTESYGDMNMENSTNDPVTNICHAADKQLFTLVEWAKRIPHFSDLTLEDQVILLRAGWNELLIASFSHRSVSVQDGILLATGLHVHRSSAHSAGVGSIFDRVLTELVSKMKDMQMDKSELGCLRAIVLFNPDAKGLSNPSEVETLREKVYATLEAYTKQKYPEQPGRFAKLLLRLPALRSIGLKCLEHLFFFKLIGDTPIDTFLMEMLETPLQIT
# T2 sequence (P43354 whole entry partner, the tested form may be a part): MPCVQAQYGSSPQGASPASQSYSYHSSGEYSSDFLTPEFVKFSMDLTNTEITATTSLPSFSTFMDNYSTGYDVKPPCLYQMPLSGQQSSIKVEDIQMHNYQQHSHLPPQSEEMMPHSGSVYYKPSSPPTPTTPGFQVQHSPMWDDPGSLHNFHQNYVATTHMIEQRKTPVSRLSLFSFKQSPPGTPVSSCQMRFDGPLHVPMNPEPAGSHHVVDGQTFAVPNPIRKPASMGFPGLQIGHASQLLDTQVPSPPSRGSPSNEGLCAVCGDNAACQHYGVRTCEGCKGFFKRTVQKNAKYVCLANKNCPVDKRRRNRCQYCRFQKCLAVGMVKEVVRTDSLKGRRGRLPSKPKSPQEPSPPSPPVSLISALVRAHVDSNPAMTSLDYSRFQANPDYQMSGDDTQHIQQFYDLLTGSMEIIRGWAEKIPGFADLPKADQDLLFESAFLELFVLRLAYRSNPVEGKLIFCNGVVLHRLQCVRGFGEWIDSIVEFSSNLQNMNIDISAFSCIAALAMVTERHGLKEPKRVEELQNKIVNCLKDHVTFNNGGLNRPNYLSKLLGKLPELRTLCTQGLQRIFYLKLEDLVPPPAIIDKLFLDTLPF
# T2 sequence (P04386 1-147 partner limits assumed): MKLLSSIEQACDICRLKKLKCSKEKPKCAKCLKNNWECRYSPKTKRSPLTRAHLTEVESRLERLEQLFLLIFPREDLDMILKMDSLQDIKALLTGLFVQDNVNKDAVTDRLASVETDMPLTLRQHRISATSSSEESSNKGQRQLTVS
# T1 sequence (P19793 whole entry, the tested form may be a part): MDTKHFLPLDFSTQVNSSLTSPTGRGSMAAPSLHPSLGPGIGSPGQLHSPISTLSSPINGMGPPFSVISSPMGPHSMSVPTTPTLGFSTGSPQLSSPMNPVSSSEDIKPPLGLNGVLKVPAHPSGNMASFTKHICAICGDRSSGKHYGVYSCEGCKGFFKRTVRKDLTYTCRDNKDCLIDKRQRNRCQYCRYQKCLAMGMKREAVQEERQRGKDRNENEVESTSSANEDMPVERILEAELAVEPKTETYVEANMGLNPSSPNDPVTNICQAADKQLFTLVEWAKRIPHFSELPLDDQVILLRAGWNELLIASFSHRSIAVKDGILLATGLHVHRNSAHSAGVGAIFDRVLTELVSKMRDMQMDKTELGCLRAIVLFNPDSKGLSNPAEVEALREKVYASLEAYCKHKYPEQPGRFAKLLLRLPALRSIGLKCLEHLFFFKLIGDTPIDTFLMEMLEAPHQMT
# T1 sequence (P43354 whole entry partner, the tested form may be a part): as the sequence (P43354 whole entry partner, the tested form may be a part) above
# T1 sequence (P04386 1-147 partner limits assumed): as the sequence (P04386 1-147 partner limits assumed) above
SMILES,Emax (NURR-1/RXRα),EC50 (NURR-1/RXRα),melting point,Emax (NURR-1/RXRγ),EC50 (NURR-1/RXRγ)
CN(C)C(=O)c1cn(-c2cccc(N3CC(C(=O)O)C3)c2)c2ccc(C(F)(F)F)cc12 [Example 131],55%,2920 nM,230 to 234 °C,–,–
CCC1(CC)C=C(c2cccc(N3CC(C(=O)O)C3)c2)c2ccc(C(F)(F)F)cc2O1 (as salt: ammonium) [Example 265],–,–,147 to 152 °C,–,–
"Cc1cc2c(c(-c3cccc(N4CC(C(=O)[O-])C4)c3)c1)NCCC(C)(C)O2.[Na+] [Example 209, sodium 1-[3-(2,2,8-trimethyl4,5-dihydro-3H-1,5-benzoxazepin-6-yl)phenyl]azetidine-3-carboxylate]",95%,212 nM,145 to 154 °C,–,–
"CC1(C)CCNc2c(cc(C(C)(C)C)cc2-c2cccc(N3CC(C(=O)[O-])C3)c2)O1.[Na+] [Example 210, sodium 1-[3-(8-tert-butyl-2,2-dimethyl-4,5-dihydro-3H-1,5-benzoxazepin-6-yl)phenyl]azetidine-3-carboxylate]",88%,75 nM,169 to 176 °C,–,–
"CC1(C)C=C(c2cccc(N3CC(C(=O)[O-])C3)c2)c2ccc(C(C)(C)C)cc2O1.[Na+] [Example 267, sodium 1-[3-(7-tert-butyl-2,2-dimethylchromen-4-yl)phenyl]azetidine-3-carboxylate]",115%,13 nM,212 to 233 °C,–,–
"CCS(=O)(=O)c1cn(-c2cccc(N3CC(C(=O)O)C3)c2)c2ccc(C(F)(F)F)cc12 [Example 138, 1-[3-[3-(ethylsulfonyl)-5-(trifluoromethyl)indol-1-yl]phenyl]azetidine-3-carboxylic acid]",116%,134 nM,161 to 168 °C,–,–
"O=C(O)C1CN(c2cccc(N3CCOc4cc(C(F)(F)F)ncc43)c2)C1 (as salt: sodium) [Example 240, sodium 1-[3-[7-(trifluoromethyl)-2,3-dihydropurido[4,3][1,4]oxazin-4-yl]phenyl]azetidine-3-carboxylate]",–,–,49 to 63 °C,–,–
"CN1CC2(CCC2)Oc2cc(C(C)(C)C)cc(-c3cccc(N4CC(C(=O)O)C4)c3)c21 (as salt: ammonium) [Example 213, tert-butylammonium 1-[3-(7-tert-butyl-4-methyl-spiro[3H-1,4-benzoxazine-2,1′-cyclobutane]-5-yl)phenyl]azetidine-3-carboxylate]",–,–,170 to 178 °C,–,–
"CC1(C)Oc2cc(C#N)ccc2N(c2cccc(N3CC(C(=O)O)C3)c2)C1=O [Example 253, 1-[3-(7-cyano-2,2-dimethyl-3-oxo-1,4-benzoxazin-4-yl)phenyl]azetidine-3-carboxylic acid]",–,–,88 to 104 °C,–,–
"CC1(C)CN(c2cccc(N3CC(C(=O)O)C3)c2)c2ccc(Br)cc2O1 (as salt: sodium) [Example 222, sodium 1-[3-(7-bromo-2,2-dimethyl-3H-1,4-benzoxazin-4-yl)phenyl]azetidine-3-carbxoylate]",–,–,140 °C,–,–
"CC(C)Cc1ccc2c(c1)OC(C)(C)CN2c1cccc(N2CC(C(=O)O)C2)c1 (as salt: ammonium) [Example 231, tert-butylammonium 1-[3-(7-isobutyl-2,2-dimethyl-3H-1,4-benzoxazin-4yl)phenyl]azetidine-3-carboxylate]",–,–,120 to 121 °C,–,–
"O=C(O)C1CN(c2cccc(-c3cc(C(F)(F)F)cc4c3NCCO4)c2)C1 [Example 65, 1-[3-[7-(trifluoromethyl)-3,4-dihydro-2H-1,4-benzoxazin-5-yl]phenyl]azetidine-3-carboxylic acid]",99%,10 nM,76 to 79 °C,–,–
"CCCc1ccc(C(C)C)cc1-c1cccc(N2CC(C(=O)O)C2)c1 (as salt: salt) [Example 195, piperazin-1-ium-1-[3-(5-isopropyl-2-propylphenyl)phenyl]azetidine-3-carboxylate]",–,–,109 °C,–,–
"CN1CC(C)(C)Oc2cc(C(C)(C)C)cc(-c3cccc(N4CC(C(=O)[O-])C4)c3)c21.[Na+] [Example 211, sodium 1-[3-(7-tert-butyl-2,2,4-trimethyl-3H-1,4-benzoxazin-5-yl)phenyl]azetidine-3-carbxoylate]",94%,0.91 nM,245 to 246 °C,–,–
"CCc1cc2c(c(-c3cccc(N4CC(C(=O)O)C4)c3)c1)NCC(C)(C)O2 (as salt: ammonium) [Example 207, tert-butylammonium 1-[3-(7-ethyl-2,2-dimethyl-3,4-dihydro-1,4-benzoxazin-5-yl)phenyl]azetidine-3-carboxylate]",–,–,100 to 124 °C,–,–
"O=C([O-])C1CN(c2cccc(C3=CC4(CCC4)Oc4cc(C(F)(F)F)ccc43)c2)C1.[Na+] [Example 268, sodium 1-[3-[7-(trifluoromethyl)spiro[chromene-2,1′-cyclobutane]-4-yl]phenyl]azetidine-3-carboxylate]",107%,~1 nM,177 to 191 °C,–,–
"CC(C)c1cc2c(c(-c3cccc(N4CC(C(=O)[O-])C4)c3)c1)NCC(C)(C)C2.[Na+] [Example 208, sodium 1-[3-(6-isopropyl-3,3-dimethyl-2,4-dihydro-1H-quinoline-8-yl)phenyl]azetidine-3-carboxylate]",109%,11 nM,196 to 203 °C,–,–
"CC1(C)CN(CC(F)(F)F)c2c(cc(C(F)(F)F)cc2-c2cccc(N3CC(C(=O)O)C3)c2)O1 (as salt: ammonium) [Example 215, tert-butylammonium 1-[3-[2,2-dimethyl-4 (2,2,2-trifluoromethyl)-7-(trifluoromethyl)-3H-1,4-benzoxazin-5-yl]phenyl]azetidine-3-carboxylate]",–,–,148 to 154 °C,–,–
"CC1(C)CC(c2cccc(N3CC(C(=O)O)C3)c2)c2ccc(C(F)(F)F)cc2O1 (stereo not shown) (as salt: ammonium) [Example 270, tert-butylammonium 1-[3-[2,2-dimethyl-7-(trifluoromethyl)chroman-4-yl]phenyl]azetidine-3-carboxylate]",–,–,116 to 122 °C,–,–
"CC1(C)N=C(c2cccc(N3CC(C(=O)[O-])C3)c2)c2ccc(C(F)(F)F)cc2O1.[Na+] [Example 271, sodium 1-[3-[2,2-dimethyl-7-(trifluoromethyl)-1,3-benzoxazin-4-yl]phenyl]azetidine-3-carboxylate]",114%,26 nM,141 to 146 °C,–,–
"CC1(C)Oc2cc(C#N)ccc2N(c2cccc(N3CC(C(=O)O)C3)c2)C1=O (as salt: ammonium) [Example 254, tert-butylammonium 1-[3-(7-cyano-2,2-dimethyl-3-oxo-1,4-benzoxazin-4-yl)phenyl]azetidine-3-carboxylate]",–,–,204 to 211 °C,–,–
"O=C(O)C1CN(c2cccc(N3CC4(CCCC4)c4cc(Cl)ccc43)c2)C1 (as salt: ammonium) [Example 257, tert-butylammonium 1-[3-(5′-chlorospiro[cyclopentane-1,3′-indolin]-1′-yl)phenyl]azetidine-3-carboxyate]",–,–,131 to 133 °C,–,–
"O=C(O)C1CN(c2cccc(-c3cc(C(F)(F)F)ccc3OCc3ccc(F)cc3)c2)C1 [Example 99, 1-[3-[2-[(4-fluorophenyl),ethoxy]-5-(trifluroomethyl)phenyl]phenyl]azetidine-3-carboxylic acid]",56%,17 nM,–,51%,19 nM
"Cc1cn(-c2cc(Cl)cc(N3CC(C(=O)O)C3)c2)c2ccc(C(F)(F)F)cc12 [Example 42, 1-[3-chloroe-5-[3-methyl-5-(trifluoromethyl)indol-1-yl]phenyl]azetidine-3-carboxylic acid]",81%,5 nM,–,67%,> 5000 nM
"CC(C)(C)c1cc2c(c(-c3cccc(N4CC(C(=O)[O-])C4)c3)c1)NCC1(CCC1)O2.[Na+] [Example 205, sodium 1-[3-(7-tert-butylspiro[3,4-dihydro-1,4-benzoxazine-2,1′-cyclobutane]-5-yl)phenyl]azetidine-3-carboxylate]",115%,4 nM,190 to 200 °C,–,–
"O=C(O)C1CN(c2cccc(N3c4ccc(C(F)(F)F)cc4C4CCCCC43)c2)C1 (stereo not shown) [Example 144, 1-[3-[6-(trifluoromethyl)-1,2,3,4,4a,9a-hexahydrocarbazol-9-yl]phenyl]azetidine-3-carboxylic acid]",97%,28 nM,–,105%,24 nM
"CC(C)c1ccc2c(c1)CC(C)(C)CN2c1cccc(N2CC(C(=O)O)C2)c1 (as salt: ammonium) [Example 245, tert-butylammonium 1-[3-(6-isopropyl-3,3-dimethyl-2,4-dihydroquinolin-1-yl)phenyl]azetidine-3-carboxylate]",–,–,165 to 177 °C,–,–
"Cc1cc(-c2cc(F)cc(Cl)c2)cc(N2CC(C(=O)O)C2)c1 [Example 18, 1-[3-(3-chloro-5-fluorophenyl)-5-methylphenyl]azetidine-3-carboxylic acid]",95%,67 nM,–,93%,157 nM
"O=C(O)C1CN(c2cccc(-c3ncc(Cl)c4ccccc34)c2)C1 [Example 36, 1-[3-(4-chloro-1-isoquinolyl)phenyl]azetidine-3-carboxylic acid]",140%,449 nM,–,121%,1000 nM
"CN1CC(C)(C)Oc2cc(C(F)(F)F)cc(-c3cccc(N4CC(C(=O)O)C4)c3)c21 [Example 63, 1-[3-[2,2,4-trimethyl-7-(trifluoromethyl)-3H-1,4-benzoxazine-5-yl]phenyl]azetidine-3-carboylic acid]",86%,2 nM,–,82%,5 nM
